Where “and” joins values, the source holds several entries; their conditions need not be identical. Equal values may be shown once. Results filed as inconclusive are left out.
System: BDF1 mice, s.c. Lewis lung carcinoma, T/C %
Test: NCI In Vivo Anticancer Drug Screen. Data for tumor model Lewis Lung Carcinoma (subcutaneous) in B6D2F1 (BDF1) mice
Procedure, shortened: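 First, mice carry a transplantable tumor. Next, groups receive either compound or vehicle. Finally, survival or tumor dimensions in the dosed animals are divided by the corresponding control figure.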

[1] = endpoint: median survival time, dose: 12.5 mg/kg/injection, schedule: Q01DX009 (ip), vehicle: Klucel (hydroxypropylcellulose) (HPC), higher = longer survival
[2] = endpoint: median survival time, dose: 25.0 mg/kg/injection, schedule: Q01DX009 (ip), vehicle: Klucel (hydroxypropylcellulose) (HPC), higher = longer survival
[3] = endpoint: mean tumor weight, dose: 50.0 mg/kg/injection, schedule: Q01DX011 (ip), vehicle: saline, higher = larger tumour
[4] = endpoint: mean tumor weight, dose: 100.0 mg/kg/injection, schedule: Q01DX011 (ip), vehicle: saline, higher = larger tumour

Compound: CCC(c1ccc(OC(=O)Cc2ccc(N(CCCl)CCCl)cc2)cc1)C(CC)c1ccc(OC(=O)Cc2ccc(N(CCCl)CCCl)cc2)cc1 (stereo unspecified)
- T/C (endpoint: median survival time, dose: 6.25 mg/kg/injection, schedule: Q01DX009 (ip), vehicle: Klucel (hydroxypropylcellulose) (HPC), higher = longer survival): 102 % of control
- T/C [1]: 104 % of control
- T/C [2]: 104 % of control
- T/C (endpoint: median survival time, dose: 25.0 mg/kg/injection, schedule: Q02DX009 (ip), vehicle: saline with Tween-80, higher = longer survival): 86 % of control
- T/C (endpoint: median survival time, dose: 50.0 mg/kg/injection, schedule: Q02DX009 (ip), vehicle: saline with Tween-80, higher = longer survival): 88 % of control
- T/C (endpoint: median survival time, dose: 100.0 mg/kg/injection, schedule: Q02DX009 (ip), vehicle: saline with Tween-80, higher = longer survival): 94 % of control

Compound: CC(=O)[C@H]1CC[C@H]2[C@@H]3C[C@H](C)C4=CC(=O)CC[C@]4(C)[C@H]3C(=O)C[C@]12C
- T/C (endpoint: mean tumor weight (est.), dose: 100.0 mg/kg/injection, schedule: Q01DX009 (ip), vehicle: saline, higher = larger tumour): 65 % of control
- T/C (endpoint: mean tumor weight (est.), dose: 200.0 mg/kg/injection, schedule: Q01DX009 (ip), vehicle: saline, higher = larger tumour): 35 % of control
- T/C (endpoint: mean tumor weight (est.), dose: 400.0 mg/kg/injection, schedule: Q01DX009 (ip), vehicle: saline, higher = larger tumour): 37 % of control
- T/C (endpoint: mean tumor weight (est.), dose: 800.0 mg/kg/injection, schedule: Q01DX009 (ip), vehicle: saline, higher = larger tumour): 60 % of control
- T/C (endpoint: median survival time, dose: 100.0 mg/kg/injection, schedule: Q01DX009 (ip), vehicle: saline, higher = longer survival): 103 % of control
- T/C (endpoint: median survival time, dose: 200.0 mg/kg/injection, schedule: Q01DX009 (ip), vehicle: saline, higher = longer survival): 110 % of control
- T/C (endpoint: median survival time, dose: 400.0 mg/kg/injection, schedule: Q01DX009 (ip), vehicle: saline, higher = longer survival): 113 % of control
- T/C (endpoint: median survival time, dose: 800.0 mg/kg/injection, schedule: Q01DX009 (ip), vehicle: saline, higher = longer survival): 100 % of control

Compound: [N-]=[N+]=CC(=O)NCC(=O)NN
- T/C (endpoint: mean tumor weight, dose: 125.0 mg/kg/injection, schedule: Q01DX011 (ip), vehicle: water, higher = larger tumour): 95 % of control
- T/C (endpoint: mean tumor weight, dose: 250.0 mg/kg/injection, schedule: Q01DX011 (ip), vehicle: water, higher = larger tumour): 66 % of control
- T/C (endpoint: mean tumor weight, dose: 500.0 mg/kg/injection, schedule: Q01DX011 (ip), vehicle: water, higher = larger tumour): 40 % of control

Compound: CCOC(=O)[C@H]1CCC[C@@H](NC(=O)N(CCCl)N=O)C1
- T/C (endpoint: median tumor weight (est.), dose: 20.0 mg/kg/injection, schedule: Q01DX001 (ip), vehicle: gum acacia, higher = larger tumour): 55 % of control
- T/C (endpoint: median tumor weight (est.), dose: 30.0 mg/kg/injection, schedule: Q01DX001 (ip), vehicle: gum acacia, higher = larger tumour): 34 % of control

Compound: CCCCCC/C=C/C#CCCCCCCCC(=O)O
- T/C (endpoint: median survival time, dose: 18.75 mg/kg/injection, schedule: Q01DX009 (ip), vehicle: Klucel (hydroxypropylcellulose) (HPC), higher = longer survival): 97 % of control
- T/C (endpoint: median survival time, dose: 37.5 mg/kg/injection, schedule: Q01DX009 (ip), vehicle: Klucel (hydroxypropylcellulose) (HPC), higher = longer survival): 90 % of control and 91 % of control
- T/C (endpoint: median survival time, dose: 75.0 mg/kg/injection, schedule: Q01DX009 (ip), vehicle: Klucel (hydroxypropylcellulose) (HPC), higher = longer survival): 102 % of control and 111 % of control

Compound: CCCCCCCCCCCCCCCC(=O)OCC1OC(n2ccc(N)nc2=O)C(O)C1O (stereo unspecified)
- T/C (endpoint: median tumor weight (est.), dose: 12.0 mg/kg/injection, schedule: Q01DX015 (ip), vehicle: saline with Tween-80, higher = larger tumour): 54 % of control
- T/C (endpoint: median tumor weight (est.), dose: 18.0 mg/kg/injection, schedule: Q01DX015 (ip), vehicle: saline with Tween-80, higher = larger tumour): 66 % of control
- T/C (endpoint: median tumor weight (est.), dose: 27.0 mg/kg/injection, schedule: Q01DX015 (ip), vehicle: saline with Tween-80, higher = larger tumour): 59 % of control

Compound: CC(=O)C(O)N1C(=O)C=CC1=O (stereo unspecified)
- T/C (endpoint: median survival time, dose: 0.31 mg/kg/injection, schedule: Q01DX009 (ip), vehicle: saline, higher = longer survival): 100 % of control
- T/C (endpoint: median survival time, dose: 0.62 mg/kg/injection, schedule: Q01DX009 (ip), vehicle: saline, higher = longer survival): 98 % of control and 105 % of control and 119 % of control
- T/C (endpoint: median survival time, dose: 1.25 mg/kg/injection, schedule: Q01DX009 (ip), vehicle: saline, higher = longer survival): 107 % of control (2×) and 120 % of control
- T/C (endpoint: median survival time, dose: 1.25 mg/kg/injection, schedule: Q02DX009 (ip), vehicle: saline, higher = longer survival): 114 % of control
- T/C (endpoint: median survival time, dose: 2.5 mg/kg/injection, schedule: Q01DX009 (ip), vehicle: saline, higher = longer survival): 90 % of control and 107 % of control
- T/C (endpoint: median survival time, dose: 2.5 mg/kg/injection, schedule: Q02DX009 (ip), vehicle: saline, higher = longer survival): 104 % of control
- T/C (endpoint: median survival time, dose: 5.0 mg/kg/injection, schedule: Q01DX009 (ip), vehicle: saline, higher = longer survival): 97 % of control and 100 % of control and 120 % of control
- T/C (endpoint: median survival time, dose: 5.0 mg/kg/injection, schedule: Q02DX009 (ip), vehicle: saline, higher = longer survival): 105 % of control

Compound: CC[C@H](c1ccc(O)cc1)[C@@H](CC)c1ccc(O)cc1
- T/C (endpoint: mean tumor weight, dose: 12.5 mg/kg/injection, schedule: Q01DX011 (ip), vehicle: saline, higher = larger tumour): 92 % of control
- T/C (endpoint: mean tumor weight, dose: 25.0 mg/kg/injection, schedule: Q01DX011 (ip), vehicle: saline, higher = larger tumour): 82 % of control
- T/C [3]: 47 % of control
- T/C [4]: 16 % of control

Compound: C=C1C(=O)OC2CC(C)C3C4OC4C(O)C3(C)C(O)C12 (stereo unspecified)
- T/C (endpoint: median survival time, dose: 9.38 mg/kg/injection, schedule: Q01DX009 (ip), vehicle: saline with Tween-80, higher = longer survival): 99 % of control
- T/C (endpoint: median survival time, dose: 18.75 mg/kg/injection, schedule: Q01DX009 (ip), vehicle: saline with Tween-80, higher = longer survival): 96 % of control
- T/C (endpoint: median survival time, dose: 37.5 mg/kg/injection, schedule: Q01DX009 (ip), vehicle: saline with Tween-80, higher = longer survival): 101 % of control

Compound: O=[N+]([O-])c1ccc([I+]c2ccccc2)cc1
- T/C [1]: 91 % of control
- T/C [2]: 95 % of control

Compound: NC1=NC(=S)C2N=C(N=Nc3ccc(C(=O)NC(CCC(=O)O)C(=O)O)cc3)N=C2N1 (stereo unspecified)
- T/C (endpoint: median survival time, dose: 0.2 mg/kg/injection, schedule: Q01DX009 (ip), vehicle: Klucel (hydroxypropylcellulose) (HPC), higher = longer survival): 97 % of control
- T/C (endpoint: median survival time, dose: 0.4 mg/kg/injection, schedule: Q01DX009 (ip), vehicle: Klucel (hydroxypropylcellulose) (HPC), higher = longer survival): 93 % of control
- T/C (endpoint: median survival time, dose: 0.78 mg/kg/injection, schedule: Q01DX009 (ip), vehicle: Klucel (hydroxypropylcellulose) (HPC), higher = longer survival): 110 % of control

Compound: CC(C)C1=CCC2C(=C1)CCC1C(C)(C(=O)O)CCCC21C (stereo unspecified) (tested in a mixture with another compound)
- T/C [3]: 72 % of control
- T/C [4]: 75 % of control
- T/C (endpoint: mean tumor weight, dose: 200.0 mg/kg/injection, schedule: Q01DX011 (ip), vehicle: saline, higher = larger tumour): 57 % of control
- T/C (endpoint: mean tumor weight, dose: 400.0 mg/kg/injection, schedule: Q01DX011 (ip), vehicle: saline, higher = larger tumour): 45 % of control

Compound: COC1=C(N)C(=O)c2nc(-c3nc(C(=O)O)c(C)cc3N)ccc2C1=O
- T/C (endpoint: median survival time, dose: 0.02 mg/kg/injection, schedule: Q01DX009 (ip), vehicle: Klucel (hydroxypropylcellulose) (HPC), higher = longer survival): 91 % of control
- T/C (endpoint: median survival time, dose: 0.05 mg/kg/injection, schedule: Q01DX009 (ip), vehicle: Klucel (hydroxypropylcellulose) (HPC), higher = longer survival): 106 % of control
- T/C (endpoint: median survival time, dose: 0.1 mg/kg/injection, schedule: Q01DX009 (ip), vehicle: Klucel (hydroxypropylcellulose) (HPC), higher = longer survival): 103 % of control

Compound: CC1CCOS(=O)O1 (stereo unspecified)
- T/C (endpoint: mean tumor weight, dose: 10.0 mg/kg/injection, schedule: Q01DX011 (ip), vehicle: saline, higher = larger tumour): 66 % of control
- T/C (endpoint: mean tumor weight, dose: 20.0 mg/kg/injection, schedule: Q01DX011 (ip), vehicle: saline, higher = larger tumour): 63 % of control
- T/C (endpoint: mean tumor weight, dose: 40.0 mg/kg/injection, schedule: Q01DX011 (ip), vehicle: saline, higher = larger tumour): 65 % of control

Compound: COc1ccc2c(c1)CC[C@@H]1[C@@H]2CC[C@]2(C)/C(=N\O)CC[C@@H]12
- T/C (endpoint: mean tumor weight, dose: 50.0 mg/kg/injection, schedule: Q01DX011 (sc), vehicle: steriod suspending solution, higher = larger tumour): 43 % of control
- T/C (endpoint: mean tumor weight, dose: 115.0 mg/kg/injection, schedule: Q01DX011 (sc), vehicle: steriod suspending solution, higher = larger tumour): 53 % of control
- T/C (endpoint: mean tumor weight, dose: 170.0 mg/kg/injection, schedule: Q01DX011 (sc), vehicle: steriod suspending solution, higher = larger tumour): 45 % of control
- T/C (endpoint: mean tumor weight, dose: 200.0 mg/kg/injection, schedule: Q01DX011 (sc), vehicle: steriod suspending solution, higher = larger tumour): 53 % of control
- T/C (endpoint: mean tumor weight, dose: 250.0 mg/kg/injection, schedule: Q01DX011 (sc), vehicle: steriod suspending solution, higher = larger tumour): 36 % of control
- T/C (endpoint: mean tumor weight, dose: 375.0 mg/kg/injection, schedule: Q01DX011 (sc), vehicle: steriod suspending solution, higher = larger tumour): 43 % of control
- T/C (endpoint: mean tumor weight, dose: 400.0 mg/kg/injection, schedule: Q01DX011 (sc), vehicle: steriod suspending solution, higher = larger tumour): 50 % of control
- T/C (endpoint: mean tumor weight, dose: 600.0 mg/kg/injection, schedule: Q01DX011 (sc), vehicle: steriod suspending solution, higher = larger tumour): 24 % of control

Compound: C=COCC(C)C (tested in a mixture with another compound)
- T/C (endpoint: median survival time, dose: 1.25 mg/kg/injection, schedule: Q01DX009 (ip), vehicle: other, higher = longer survival): 101 % of control
- T/C (endpoint: median survival time, dose: 2.5 mg/kg/injection, schedule: Q01DX009 (ip), vehicle: other, higher = longer survival): 110 % of control
- T/C (endpoint: median survival time, dose: 5.0 mg/kg/injection, schedule: Q01DX009 (ip), vehicle: other, higher = longer survival): 107 % of control

Compound: Cc1cc(N(CC(C)Br)CC(C)Br)ccc1N=Nc1ccccc1C(=O)O (stereo unspecified)
- T/C (endpoint: median survival time, dose: 3.12 mg/kg/injection, schedule: Q01DX009 (ip), vehicle: saline with Tween-80, higher = longer survival): 108 % of control
- T/C (endpoint: median survival time, dose: 6.25 mg/kg/injection, schedule: Q01DX009 (ip), vehicle: saline with Tween-80, higher = longer survival): 95 % of control and 102 % of control

Compound: CC(=O)CC(C)=O.CC(=O)CC(C)=O.CC(=O)CC(C)=O.[V]
- T/C (endpoint: median survival time, dose: 3.12 mg/kg/injection, schedule: Q01DX009 (ip), vehicle: saline, higher = longer survival): 109 % of control
- T/C (endpoint: median survival time, dose: 6.25 mg/kg/injection, schedule: Q01DX009 (ip), vehicle: saline, higher = longer survival): 109 % of control
- T/C (endpoint: median survival time, dose: 12.5 mg/kg/injection, schedule: Q01DX009 (ip), vehicle: saline, higher = longer survival): 94 % of control
